Tests used:
Format in all cases: physicochemical
[1] = Standing for one day at 25° C. and polarization microscope observation of deposits
Procedure: In addition, the above each dispersion was left to stand for one day at 25° C. […] The depositions were observed using a polarization microscope (“ECLIPSE E600”, manufactured by NIKON CORPORATION). The result is shown as FIG. 3. […] A lamellar liquid crystal may incorporate both of a hydrophilic substance and a lipophilic substance inside, since a lamellar liquid crystal has both of a hydrophilic part and a lipophilic part.

[2] = Secondary structure formation by circular dichroism dispersion meter
Procedure: Similarly to the above-described Example 1, SFNa and acetone (5 mL) was added in a test tube. The mixture was stirred using a vortex mixer for 3 minutes in order to prepare 0.1 mass %, 0.5 mass % or 1 mass % SFNa solution in acetone. Then, secondary structure formation of SFNa in the prepared acetone solutions was measured using a circular dichroism dispersion meter (“J-820”, manufactured by JASCO Corporation).
Similarly to the above-described Example 5, methanol (1 mL) and SFNa were measured off in a test tube, and the mixture was stirred using a vortex mixer for 3 minutes in order to prepare 0.01 to 1 mass % SFNa solutions in methanol. Then, secondary structure formation of SFNa in the prepared […] solutions was measured using a circular dichroism dispersion meter (“J-820”, manufactured by JASCO Corporation).
Similarly to the above-described Example 5, ethanol (1 mL) and SFNa were measured off in a test tube, and the mixture was stirred using a vortex mixer for 3 minutes in order to prepare 0.05 to 1 mass % SFNa solutions in ethanol. Then, secondary structure formation of SFNa in the prepared ethanol solutions was measured using a circular dichroism dispersion meter (“J-820”, manufactured by JASCO Corporation).
Similarly to the above-described Example 5, tetrahydrofuran (1 mL) and SFNa were measured off in a test tube, and the mixture was stirred using a vortex mixer for 3 minutes in order to prepare 0.5 mass % or 1 mass % SFNa solutions in tetrahydrofuran. Then, secondary structure formation of SFNa in the prepared tetrahydrofuran solutions was measured using a circular dichroism dispersion meter (“J-820”, manufactured by JASCO Corporation).

[3] = Surface tension measurement at 25° C. (DY-500); conditions: for surface tension reducing ability: 2 mass % in 20 vol % ethanol aqueous solution
Procedure: Then, an experiment for confirmation of effect of reducing surface free energy by SFNa in organic solvent was carried out. Specifically, SFNa and diethylene glycol (10 mL) was added in a test tube so that SFNa concentration became 2 mass % similarly to the above-described Example 1. The mixture was stirred using a vortex mixer for 3 minutes. The dispersion was transferred to a petri dish and left to stand. The surface tension was measured at 25° C. using a high function surface tension measuring device (“DY-500”, manufactured by Kyowa Interface Science Co., Ltd.). In addition, the surface tensions of diethylene glycol only and 2 mass % diethylene glycol solution of sodium dodecyl sulfate, i.e. “SDS”, were similarly measured as control.
An experiment for confirmation of effect of reducing surface free energy by SFNa in a mixed solvent of water and a water-miscible solvent was also carried out. Specifically, SFNa and 20 vol % ethanol aqueous solution (10 mL) was added in a test tube so that SFNa concentration became 2 mass % similarly to the above-described Example 1. The mixture was stirred using a vortex mixer for 3 minutes. In addition, 2 mass % SDS solution was obtained as control by dissolving SDS in 20 vol % ethanol aqueous solution.
In addition, the surface tension reducing ability of SFNa and SDS in 20 vol % ethanol aqueous solution was evaluated at 25° C. similarly to the above-described Example 2.
Furthermore, surface tension was measured similarly to the above-described Example 2 except that the organic solvent was changed from diethylene glycol to dimethylsulfoxide, i.e. DMSO.
An experiment for confirmation of effect of reducing surface free energy by SFNa in a mixed solvent which contained acetone as a water-miscible solvent was also carried out, since the secondary structure formation was confirmed in the above-described Example 5. Specifically, SFNa and 20 vol % or 50 vol % acetone aqueous solution (10 mL) were added in a test tube so that SFNa concentration became 1 mass % similarly to the above-described Example 1. The mixture was stirred using a vortex mixer for 3 minutes. In addition, 1 mass % SDS solution was obtained as control by dissolving SDS in 20 vol % or 50 vol % acetone aqueous solution. The dispersion was transferred to a petri dish and left to stand similarly to the above-described Example 2. The surface tension was measured at 25° C. using a high function surface tension measuring device (“DY-500”, manufactured by Kyowa Interface Science Co., Ltd.).

[4] = Particle size distribution by dynamic light scattering (micelle formation); conditions: DLS
Procedure: In a test tube, surfactin sodium salt (hereinafter, referred to as “SFNa”) and methanol (5 mL) or ethanol (5 mL) were added so that SFNa concentration became 2 mass %. The mixture was stirred using a vortex mixer for 3 minutes. A particle size distribution of the particles which were contained in each obtained dispersion was measured using a dynamic light scattering measuring device (product name: DLS-7000, manufactured by OTSUKA ELECTRON Co., Ltd.). In the measurement, Ar laser (λ=488 nm) was used as a light source and a scattering angle was adjusted to 90°. The result of the methanol dispersion is shown by FIG. 1 and the result of the ethanol dispersion is shown by FIG. 2.
First, an association behavior of SFNa was evaluated by a dynamic light scattering method as the above-described Example 1. As FIG. 4, a micelle having an average particle diameter of 44.8±7.7 nm was observed.

[5] = 1 mass % in 20 vol % acetone aqueous solution
[6] = 1 mass % in 50 vol % acetone aqueous solution
[7] = 2 mass % in 20 vol % ethanol aqueous solution

Row | Compound | appearance of dispersion after standing ([1]; 2 mass % ethanol dispersion) | polarization microscope observation of deposits ([1]; 2 mass % ethanol dispersion) | appearance of dispersion after standing ([1]; 2 mass % methanol dispersion) | secondary structure formation (CD, negative peak near 200 nm) ([2]; 0.01 to 1 mass % in methanol) | secondary structure formation (CD, negative peak near 200 nm) ([2]; 0.05 to 1 mass % in ethanol) | secondary structure formation (CD, negative peak near 200 nm) ([2]; 0.1, 0.5 or 1 mass % in acetone) | secondary structure formation (CD, negative peak near 200 nm) ([2]; 0.5 or 1 mass % in tetrahydrofuran) | surface tension reducing effect [3, 5] | surface tension reducing effect [3, 6] | surface tension reducing ability [3] | Surface tension ([3]; 2 mass % in DMSO) | Surface tension ([3]; 2 mass % in diethylene glycol) | average particle diameter of micelle [4, 7] | average particle diameter of micelle ([4]; 2 mass % in ethanol) | average particle diameter of micelle ([4]; 2 mass % in methanol) | micelle observation [4, 7]
1 | surfactin sodium salt [SFNa] | there were deposits | a Maltese Cross image which is characteristic of lamellar liquid crystal was observed | remained transparent | forms secondary structure | forms secondary structure | forms secondary structure | forms secondary structure | clearly superior to SDS | the surface tension could be clearly reduced | could clearly reduce the surface tension | 39.2 mN/m | 39.6 mN/m | 44.8±7.7 nm | 956.8±286.5 nm | 1035.1±230.7 nm | 
2 | CCCCCCCCCCCCOS(=O)(=O)[O-].[Na+] [SDS, sodium dodecyl sulfate, reference compound] |  |  |  |  |  |  |  | reduced the surface tension | could not reduce the surface tension | could not reduce the surface tension | 43.4 mN/m | 44.5 mN/m |  |  |  | a micelle cannot be observed

Source: patent US20160193131A1, “METHOD FOR REDUCING SURFACE FREE ENERGY AND COMPOSITION HAVING REDUCED SURFACE FREE ENERGY” (KANEKA CORPORATION, priority 2013, published 2016)
